Test results taken from ChEMBL document CHEMBL1201862, “PubChem BioAssay data set” (2004).
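Protocol summary: plate cells (96-well), add compound at 5 concentrations, incubate 48 h, interpolate endpoints linearly. Abbreviation: GI50, concentration required for 50% inhibition of growth.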 Activity calls are given as the source filed them. Rule as the data show it: active = GI50 up to about 1.1 µM and inactive = higher.

Legend:
Experiment in all cases: NCI tumour cell line growth inhibition, 48 h
[1] = test system: 786-0
[2] = test system: A498
[3] = test system: A549
[4] = test system: ACHN
[5] = test system: CAKI-1
[6] = test system: CCRF-CEM
[7] = test system: COLO 205
[8] = test system: DLD-1
[9] = test system: DMS-114
[10] = test system: DMS-273
[11] = test system: EKVX
[12] = test system: HCC 2998
[13] = test system: HCT-116
[14] = test system: HL-60
[15] = test system: HOP-18
[16] = test system: HOP-62
[17] = test system: HOP-92
[18] = test system: HT-29
[19] = test system: IGROV-1
[20] = test system: K562
[21] = test system: KM-20L2
[22] = test system: KM12
[23] = test system: LOX IMVI
[24] = test system: LXFL 529
[25] = test system: M14
[26] = test system: M19-MEL
[27] = test system: MOLT-4
[28] = test system: Malme-3M
[29] = test system: NCI-H226
[30] = test system: NCI-H23
[31] = test system: NCI-H522
[32] = test system: OVCAR-3
[33] = test system: OVCAR-4
[34] = test system: OVCAR-5
[35] = test system: OVCAR-8
[36] = test system: RXF 393
[37] = test system: RXF 631
[38] = test system: SF-268
[39] = test system: SF-295
[40] = test system: SF-539
[41] = test system: SK-MEL-28
[42] = test system: SK-MEL-5
[43] = test system: SK-OV-3
[44] = test system: SN12C
[45] = test system: SNB-19
[46] = test system: SNB-75
[47] = test system: SNB-78
[48] = test system: SR
[49] = test system: SW-620
[50] = test system: TK-10
[51] = test system: U-251
[52] = test system: UACC-257
[53] = test system: UACC-62
[54] = test system: UO-31
[55] = test system: HCT-15
[56] = test system: NCI-H460
[57] = test system: RPMI-8226
[58] = test system: SK-MEL-2

With `O=[N+]([O-])C1Cc2ccccc2OC1c1ccccc1` (stereo not drawn) the GI50 [1] was 35.3 µM (inactive), the GI50 [2] was > 100 µM (inactive) and the GI50 [3] was > 100 µM (inactive). The GI50 [4] was 66.7 µM (inactive), the GI50 [5] was 24.1 µM (inactive) and the GI50 [6] was 30.8 µM (inactive). For the same molecule, the GI50 [7] was 69 µM (inactive), the GI50 [8] was 35.3 µM (inactive) and the GI50 [9] was > 10 µM (inactive). For the same molecule, the GI50 [10] was 60.4 µM (inactive), the GI50 [11] was > 100 µM (inactive) and the GI50 [12] was > 100 µM (inactive). The GI50 [13] was 66.4 µM (inactive), the GI50 [14] was 39.4 µM (inactive) and the GI50 [15] was > 100 µM (inactive). For the same molecule, the GI50 [16] was 33.5 µM (inactive), the GI50 [17] was 83.2 µM (inactive) and the GI50 [18] was 83.8 µM (inactive). The GI50 [19] was 64.4 µM (inactive), the GI50 [20] was 26.8 µM (inactive) and the GI50 [21] was > 100 µM (inactive). For the same molecule, the GI50 [22] was > 100 µM (inactive), the GI50 [23] was 15.3 µM (inactive) and the GI50 [24] was > 100 µM (inactive). For the same molecule, the GI50 [25] was > 100 µM (inactive), the GI50 [26] was > 100 µM (inactive) and the GI50 [27] was 23.4 µM (inactive). The GI50 [28] was > 100 µM (inactive), the GI50 [29] was > 100 µM (inactive) and the GI50 [30] was 92.9 µM (inactive). The GI50 [31] was 26.6 µM (inactive), the GI50 [32] was > 100 µM (inactive) and the GI50 [33] was > 100 µM (inactive). For the same molecule, the GI50 [34] was > 100 µM (inactive), the GI50 [35] was 89.7 µM (inactive) and the GI50 [36] was 21.8 µM (inactive). For the same molecule, the GI50 [37] was 62.2 µM (inactive), the GI50 [38] was 36.1 µM (inactive) and the GI50 [39] was 40.5 µM (inactive). For the same molecule, the GI50 [40] was 31.2 µM (inactive), the GI50 [41] was 86.1 µM (inactive) and the GI50 [42] was > 100 µM (inactive). For the same molecule, the GI50 [43] was 96.6 µM (inactive), the GI50 [44] was 21.7 µM (inactive) and the GI50 [45] was 41.9 µM (inactive). The GI50 [46] was 19.9 µM (inactive), the GI50 [47] was 21.4 µM (inactive) and the GI50 [48] was 15.3 µM (inactive). For the same molecule, the GI50 [49] was > 100 µM (inactive), the GI50 [50] was 77.1 µM (inactive) and the GI50 [51] was 40.6 µM (inactive). The GI50 [52] was > 100 µM (inactive), the GI50 [53] was 55.3 µM (inactive) and the GI50 [54] was > 100 µM (inactive).
In the case of `COc1cc2c(c(OC)c1OC)CCNC2C1=C(O)COC1=O` (stereo not drawn), the GI50 [1] is reported as > 100 µM (inactive), the GI50 [2] is reported as > 100 µM (inactive) and the GI50 [3] is reported as > 100 µM (inactive). For the same molecule, the GI50 [4] was > 100 µM (inactive), the GI50 [5] was > 100 µM (inactive) and the GI50 [6] was > 100 µM (inactive). The GI50 [7] was > 100 µM (inactive), the GI50 [8] was > 100 µM (inactive) and the GI50 [9] was > 100 µM (inactive). The GI50 [10] was > 100 µM (inactive), the GI50 [12] was > 100 µM (inactive) and the GI50 [13] was > 100 µM (inactive). For the same molecule, the GI50 [55] was greater than 100 µM, the GI50 [14] was > 100 µM (inactive) and the GI50 [15] was 95.5 µM (inactive). For the same molecule, the GI50 [16] was > 100 µM (inactive), the GI50 [17] was > 100 µM (inactive) and the GI50 [18] was > 100 µM (inactive). The GI50 [19] was > 100 µM (inactive), the GI50 [20] was > 100 µM (inactive) and the GI50 [21] was > 100 µM (inactive). For the same molecule, the GI50 [22] was > 100 µM (inactive), the GI50 [23] was > 100 µM (inactive) and the GI50 [24] was > 100 µM (inactive). The GI50 [25] was > 100 µM (inactive), the GI50 [26] was > 100 µM (inactive) and the GI50 [27] was > 100 µM (inactive). For the same molecule, the GI50 [28] was > 100 µM (inactive), the GI50 [29] was 28.9 µM (inactive) and the GI50 [56] was 92.9 µM (inactive). For the same molecule, the GI50 [31] was > 100 µM (inactive), the GI50 [33] was > 100 µM (inactive) and the GI50 [34] was > 100 µM (inactive). For the same molecule, the GI50 [35] was > 100 µM (inactive), the GI50 [57] was 88.3 µM (inactive) and the GI50 [36] was > 100 µM (inactive). The GI50 [37] was > 100 µM (inactive), the GI50 [38] was > 100 µM (inactive) and the GI50 [39] was > 100 µM (inactive). The GI50 [40] was > 100 µM (inactive), the GI50 [58] was 61.9 µM (inactive) and the GI50 [42] was 95.1 µM (inactive). The GI50 [43] was > 100 µM (inactive), the GI50 [44] was > 100 µM (inactive) and the GI50 [45] was > 100 µM (inactive). For the same molecule, the GI50 [46] was > 100 µM (inactive), the GI50 [47] was > 100 µM (inactive) and the GI50 [48] was > 100 µM (inactive). The GI50 [49] was > 100 µM (inactive), the GI50 [50] was > 100 µM (inactive) and the GI50 [51] was > 100 µM (inactive). The GI50 [52] was > 100 µM (inactive), the GI50 [53] was 55.6 µM (inactive) and the GI50 [54] was > 100 µM (inactive).
